# Data taken from US6894185B2, “Substituted chiral allosteric hemoglobin modifiers” (Allós Therapeutics, Inc., priority 1999, dated 2005).
# Where “and” joins values, the source holds several entries; their conditions need not be identical. Identical values can stand only once.
# Columns and labels:
# [1] = target: T1, purified stripped human adult hemoglobin (Homo sapiens, UniProt P68871+P69905); assay: Hemoglobin solution oxygen equilibrium studies (HEMOX-analyzer); assay type: biochemical; settings: for n50 (Hill coefficient at 50% saturation): n50 control 2.7; for P50e/P50c: ratio to P50 control with no effector (5.0 mmHg)
# T1 construct: using purified stripped human adult hemoglobin as described previously; from tissue
# T1 sequence (P69905 2-142 limits assumed): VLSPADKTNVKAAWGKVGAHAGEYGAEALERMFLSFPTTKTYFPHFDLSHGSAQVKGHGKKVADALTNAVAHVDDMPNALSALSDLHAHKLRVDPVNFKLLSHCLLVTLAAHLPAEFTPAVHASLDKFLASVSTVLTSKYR
# T1 sequence (P68871 2-147 limits assumed): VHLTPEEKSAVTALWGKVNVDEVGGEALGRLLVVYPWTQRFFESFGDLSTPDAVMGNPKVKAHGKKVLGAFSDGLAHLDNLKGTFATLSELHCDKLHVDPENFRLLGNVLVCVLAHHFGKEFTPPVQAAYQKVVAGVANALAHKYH
# Method: Structure-allosteric activity relationships were determined from the synthetic chiral effectors comparing the shift in the oxygen binding curve of Hb solutions using a Hemox-Analyzer. In vitro biological activity testing in the presence of plasma proteins was also performed on selected enantiomers and racemates (multi-point tonometry and blood gas analysis) to screen for candidates with potential clinical use. SAR studies compared the degree in shift in P50 values, i.e., the partial pressure of molecular oxygen necessary to half-saturate hemoglobin. An effector that decreases Hb oxygen affinity increases the P50 value relative to the control. Thus, the activity or potency of each analog could be expressed by the ratio P50 (effector)/P50(control). […] The slope of the log of the oxygen binding curves is known as the Hill coefficient. The Hill coefficient measures the degree of cooperativity in binding for an allosteric protein, the normal range for human blood is 2.7-3.2.
# The effectors were prepared as 10 mM stock solutions in 100 mM NaCl bis-Tris buffer, pH 7.2. After the addition of an excess of NaHCO3, the solution was warmed to 60° C. and stirred for several hours. The solutions were back titrated carefully to pH 7.2 at 25° C. prior to use. Oxygen equilibrium measurements were performed with the HEMOX-analyzer (TCS Medical products, Southampton, Pa.) using purified stripped human adult hemoglobin as described previously. 4 mL of buffer, 100 mM NaCl, 50 mM bis-Tris at pH 7.2, is added to a cuvette in the HEMOX, followed by 200 μL of the 10 mM effector stock solution. Hemoglobin is then added to achieve a final Hb concentration of […] on heme basis. Catalase (20 μg/mL) and 50 mM EDTA were added to limit oxidation of the hemes. […] The saturation of hemoglobin was determined spectrophotometrically with a dual wavelength spectrophotometer (577 nm and 586.2 nm). The solution was stirred constantly during the 45-60 min recordings. The P50 and n50 values were calculated by linear regression analysis from data points comprised between 40 and 60% oxygen saturation.
# hemoglobin = target: T2, hemoglobin (Homo sapiens, UniProt P68871+P69905); assay: In vitro whole blood studies (multi-point tonometry and blood gas analysis); assay type: cell-based; settings: for Whole Blood Δp50 mm Hg: Table II; for ΔP50 ± S.D. (P50 effector − P50control) / P50e (P50 value in the presence of the effector): Table VI, 2.5 mM Hb, 5.0 mM effector; for P50e (P50 value in the presence of the effector): single runs, DMSO stock
# T2 construct: The whole blood samples were collected in heparinized tubes from healthy volunteers; from tissue; host or cells: human whole blood (heparinized) from healthy volunteers
# T2 sequence (P69905 2-142 limits assumed): as the sequence (P69905 2-142 limits assumed) above
# T2 sequence (P68871 2-147 limits assumed): as the sequence (P68871 2-147 limits assumed) above
# Method: Structure-allosteric activity relationships were determined from the synthetic chiral effectors comparing the shift in the oxygen binding curve of Hb solutions using a Hemox-Analyzer. In vitro biological activity testing in the presence of plasma proteins was also performed on selected enantiomers and racemates (multi-point tonometry and blood gas analysis) to screen for candidates with potential clinical use. SAR studies compared the degree in shift in P50 values, i.e., the partial pressure of molecular oxygen necessary to half-saturate hemoglobin. An effector that decreases Hb oxygen affinity increases the P50 value relative to the control. Thus, the activity or potency of each analog could be expressed by the ratio P50 (effector)/P50(control). Tables and II and III summarize the p50 values obtained using human whole blood, while Tables IV and V summarize the P50 and the Hill coefficient values (n50) at half-saturation obtained using Hemox-analyzer. The slope of the log of the oxygen binding curves is known as the Hill coefficient. The Hill coefficient measures the degree of cooperativity in binding for an allosteric protein, the normal range for human blood is 2.7-3.2. Table VI presents the results from the whole blood studies given as a ΔP50 and Hill coefficient (n50) values for the enantiomers and racemates.
# The whole blood samples were collected in heparinized tubes from healthy volunteers and stored over ice. The sodium salts of the compounds were prepared as described earlier. A 200 mM stock solution of the effector was prepared in DMSO. A 5.0 mM test solution was prepared from 50 μL of the 200 mM test solution and 1950 μL of whole blood. The blood samples were incubated in IL 237 tonometers (Instrumentation Laboratories, Inc. Lexington, Mass.) for approximately 10-12 min at 37° C. and equilibrated at three separate concentrations of O2 (20%, 40%, and 60%). After equilibration at each concentration of O2, a sample was removed via syringe and aspirated into a IL 1420 Automated Blood Gas Analyzer (Instrumentation Laboratories, Inc. Lexington, Mass.) and a IL 482 and IL 682 Co-oximeter (Instrumentation Laboratories, Inc. Lexington, Mass.) to determine the pH, pCO2, pO2 and the hemoglobin oxygen saturation values (sO2), respectively. The measured values for pO2 and sO2 at each oxygen saturation level were then subjected to a non-linear regression analysis using the program Scientist (Micromath, Salt Lake City, Utah) to calculate the P50 and Hill coefficient values.
# [2] = target: T1, purified stripped human adult hemoglobin; assay: Hemoglobin solution oxygen equilibrium studies (HEMOX-analyzer); assay type: biochemical; settings: 0.5 mM effector, 100 mM bis-Tris buffer, pH 7.2
# [3] = Table IV, 0.5 mM effector, pH 7.2
# [4] = Table V resolved enantiomers, 0.5 mM effector, pH 7.2
SMILES,"n50 (Hill coefficient at 50% saturation) [1, 3]","P50e/P50c [1, 3]",Whole Blood Δp50 mm Hg (hemoglobin) [mm Hg],P50e (oxygen pressure at which Hb is 50% saturated with oxygen in the presence of the effector) ([2]; Table IV) [mmHg],ΔP50 ± S.D. (P50 effector − P50control) (hemoglobin) [mmHg],P50e (P50 value in the presence of the effector) (hemoglobin),"n50 (Hill coefficient at 50% saturation) [1, 4]",P50e/P50c ([1]; Table V resolved enantiomers),P50e (oxygen pressure at which Hb is 50% saturated with oxygen in the presence of the effector) ([2]; Table V resolved enantiomers) [mmHg]
"Cc1cc(Cl)cc(NC(=O)Cc2ccc(OC3(C(=O)O)CCCC3C)cc2)c1 (stereo not drawn) [Compound 8, 1-[4-[[(3-chloro-5-methylanilino)carbonyl]methyl]phenoxy]-2-methylcyclopentane carboxylic acid]",2.4,4.4,25,22,–,–,–,–,–
"Cc1cc(C)cc(NC(=O)Cc2ccc(OC3(C(=O)O)CCCC(C)C3)cc2)c1 (stereo not drawn) [Compound 11, 1-[4-[[(3,5-dimethylanilino)carbonyl]methyl]phenoxy]-3-methylcyclohexane carboxylic acid]",2.5,2.1,16,10,–,–,–,–,–
"Cc1cc(Cl)cc(NC(=O)Cc2ccc(OC3(C(=O)O)CCC(C)C3)cc2)c1 (stereo not drawn) [Compound 9, 1-[4-[[(3-chloro-5-methylanilino)carbonyl]methyl]phenoxy]-3-methylcyclopentane carboxylic acid]",2.4,2.8,15,14,–,–,–,–,–
"Cc1cc(C)cc(NC(=O)Cc2ccc(OC3(C(=O)O)CCOCC3)cc2)c1 [Compound 4, 4-[4-[[(3,5-dimethylanilino)carbonyl]methyl]phenoxy]tetrahydro-2H-4-pyrancarboxylic acid]",2.4,1.5,17.8,7.6,–,–,–,–,–
"Cc1cc(C)cc(NC(=O)Cc2ccc(OC(C)C(=O)O)cc2)c1 (single isomer, unassigned; (+)) [(+) 18, (+)-2-[4-[[(3,5-dimethylanilino)carbonyl]methyl]phenoxy]-propionic acid]",–,–,–,–,20.7 ± 0.7,47.4 mmHg and 48.7 mmHg,2.6,2,9.8
Cc1cc(C)cc(NC(=O)Cc2ccc(OC3(C(=O)O)CCC(C)C3)cc2)c1 (stereo not drawn) [Compound 3],2.5,2.6,20.3,13,–,–,–,–,–
"CCC(Oc1ccc(CC(=O)Nc2cc(C)cc(C)c2)cc1)C(=O)O (racemic) [Compound 20, 2-[4-[[(3,5-dimethylanilino)carbonyl]methyl]phenoxy]-butanoic acid]",2.7,2.6,–,13,–,–,–,–,–
"CCC(Oc1ccc(CC(=O)Nc2cc(C)cc(C)c2)cc1)C(=O)O (single isomer, unassigned; (-)) [(−) 20]",–,–,–,–,–,–,2.8,2,9.8
"CCC(Oc1ccc(CC(=O)Nc2cc(C)cc(C)c2)cc1)C(=O)O (single isomer, unassigned; (+)) [(+) 20]",–,–,–,–,–,–,2.7,3.6,18
"Cc1cc(C)cc(NC(=O)Cc2ccc(OC(F)C(=O)O)cc2)c1 (stereo not drawn) [Compound 19, 2-[4-[[3,5-dimethylanilino)carbonyl]methyl]phenoxy-2-fluoroacetic acid]",2.5,1.2,–,5.9,–,–,–,–,–

# Further lines, with some results ahead:
"n50 (Hill coefficient at 50% saturation) [1, 3]","P50e/P50c [1, 3]",Whole Blood Δp50 mm Hg (hemoglobin) [mm Hg],P50e (oxygen pressure at which Hb is 50% saturated with oxygen in the presence of the effector) ([2]; Table IV) [mmHg],ΔP50 ± S.D. (P50 effector − P50control) (hemoglobin) [mmHg],P50e (P50 value in the presence of the effector) (hemoglobin),SMILES,"n50 (Hill coefficient at 50% saturation) [1, 4]",P50e/P50c ([1]; Table V resolved enantiomers),P50e (oxygen pressure at which Hb is 50% saturated with oxygen in the presence of the effector) ([2]; Table V resolved enantiomers) [mmHg]
2.3,4.7,–,23,45.2 ± 2.2,76.5 mmHg and 73.4 mmHg,"Cc1cc(C)cc(NC(=O)Cc2ccc(OC(C)(C)C(=O)O)cc2)c1 [RSR13, reference compound]",–,–,–
2.3,4.3,45.4,22,40.1 ± 0.9,66 mmHg and 67.2 mmHg,"Cc1cc(C)cc(NC(=O)Cc2ccc(OC3(C(=O)O)CCCC3C)cc2)c1 (racemic) [Compound 1, 1-[4-[[(3,5-dimethylanilino)carbonyl]methyl]phenoxy]-2-methylcyclopentane carboxylic acid]",–,–,–
2.4,4.4,–,21,–,–,"Cc1cc(Cl)cc(NC(=O)Cc2ccc(OC(C)(C)C(=O)O)cc2)c1 [KDD86, reference compound]",–,–,–
2.7,2.3,25.6,12,–,–,"CCCC(C)(Oc1ccc(CC(=O)Nc2cc(C)cc(C)c2)cc1)C(=O)O (stereo not drawn) [Compound 6, 2-[4-[[(3,5-dimethylanilino)carbonyl]methyl]phenoxy]-2-methylpentanoic acid]",–,–,–
2.6,3,–,15,–,–,"CC(C)(Oc1ccc(CC(=O)Nc2ccc3c(c2)CCC3)cc1)C(=O)O [RSR46, reference compound]",–,–,–
2.4,5.1,–,26,42.3 ± 4.9,74.7 mmHg and 67.7 mmHg,"Cc1cc(C)cc(NC(=O)Cc2ccc(OC3(C(=O)O)CCCC3)cc2)c1 [JP7, 1-[4-(((3,5-dimethylanilino)carbonyl)methyl)phenoxy]cyclopentanecarboxylic acid, reference compound]",–,–,–
2.4,2.7,–,13,–,–,"CCC(C)(Oc1ccc(CC(=O)Nc2cc(C)cc(C)c2)cc1)C(=O)O (stereo not drawn) [Compound 21, 2-[4-[[(3,5-dimethylanilino)carbonyl]methyl]phenoxy]-2-methylbutanoic acid]",–,–,–
